According to article PMC10021052, “Novel multivalent S100A8 inhibitory peptides attenuate tumor progression and metastasis by inhibiting the TLR4-dependent pathway” (Cancer Gene Therapy, 2023):
“Also recorded” adds a separate entry of the source.

What was measured:
SW480 cells = test: qPCR, S100A8-mediated IL-8 and VEGF mRNA induction in SW480 cells; type: cell-based, human; conditions: qPCR, normalized to β-actin
[1] = system: p38 and p65 (NF-κB) in SW480 cells; test: Western blotting, S100A8-induced phosphorylation of p38 and p65 in SW480 cells; type: cell-based; conditions: 2.5 µM pretreatment, human S100A8 30 min
Procedure: Cells were lysed in lysis buffer (50 mM Tris-HCl [pH 7.4], 150 mM NaCl, 5 mM Na4P2O7, 10 mM β-glycerophosphate, 25 mM NaF, 1 mM EDTA, 1 mM EGTA, 1 mM Na3VO4, and 1% [v/v] Triton X-100) containing the cOmplete^TM Mini protease inhibitor cocktail (Roche Diagnostics, Indianapolis, IN, USA) as described previously. Cell lysates (20 µg) were separated using SDS-PAGE and transferred to an Immun-Blot PVDF membrane (Bio-Rad, Hercules, CA, USA). After blocking with Blocking One or Blocking One-P (Nacalai tesque, Kyoto, Japan), membranes were probed with the indicated antibodies, followed by HRP-labeled anti-rabbit IgG and anti-mouse IgG (GE Healthcare). Signals were visualized using Immobilon Western HRP Substrate (Millipore, Billerica, USA).
Fig. 4 Improvement of competitive inhibition activity by divalent peptide3A5. A The binding capacity was measured at the indicated concentration using an ELISA-based assay. Similar results were obtained in three independent experiments. B SW480 cells were pretreated with 2.5 µM of divalent peptide3A5, and then stimulated with human S100A8 recombinant protein. After 30 min, cell lysates were subjected to western blotting using the indicated antibody. The divalent peptide#3 or peptide3A5 reduced the expression of S100A8-mediated IL-8 (C) and VEGF (D) induction. […]

[2] = system: SW480-transplanted xenograft; test: Tumor growth in SW480-transplanted xenograft model; type: in vivo, Balb nu/nu mice; conditions: every 3 days; for tumor growth, divalent peptide3A5 monotherapy: SW480 xenograft, various doses, n = 5–6 mice per group; for tumor growth, combination with 5-FU: divalent peptide3A5 5 mg/kg i.p. + 5-FU 20 mg/kg i.p.
[3] = system: subcutaneous SW480 tumors; test: Immunohistochemistry of subcutaneous SW480 tumors: proliferation and caspase-3; type: in vivo, Balb nu/nu mice; conditions: Supplementary Fig. 2
Procedure: (§1) To immunostain tumor vasculatures, the cryo sections (6 µm) obtained from frozen primary tumors, were incubated with anti-CD31 (BD Pharmingen, Cat No. 550274), and/or anti-α-SMA-Cy3 (Sigma-Aldrich, Cat No. C6198) followed by AlexaFlour 488-conjugated rat IgG secondary antibodies (Thermo Fisher Scientific) were used to visualize the signals by a confocal microscopy (LSM-710; Carl Zeiss). DAPI staining was used for nuclear staining. For immunohistochemistry, the paraffin-embedded sections were cut 4 µm thick and then deparaffinized, rehydrated and then treated for antigen retrieval. The sections were incubated with the indicated antibody overnight, followed by incubation with ImmPRESS HRP Reagent (Vector, Newark, CA). ImmPACT DAB (Vector) was used for visualization of the signals. The images were captured by BZ-X800 (Keyence, Osaka, Japan).

[4] = system: tumor vasculature of SW480 xenograft; test: Tumor vasculature and pericyte coverage (CD31, α-SMA) in SW480 tumors; type: in vivo, Balb nu/nu mice
Procedure: as §1

CD8+ cells = test: Intratumoral infiltrating CD8+ cells; type: in vivo, mouse; conditions: Supplementary Fig. 3A
Procedure: as §1

PKH26-labeled LLC cells = test: Lung dissemination of PKH26-labeled LLC cells in TCM-sensitized mice; type: in vivo, C57BL/6J mice; conditions: 10 mg/kg i.p. 1 h before last TCM injection; lungs 16 h after cells; 5–6 mice per group; *P < 0.05 vs control
[5] = system: tumor cells and macrophages; test: Cytokine/chemokine induction in tumor cells and macrophages; type: cell-based; conditions: possible mechanism scheme, Fig. 7I
LLC tumor = test: Tumor growth in LLC tumor-bearing mice; conditions: *P < 0.05 vs control; for LLC tumor growth, monotherapy: 10 mg/kg i.p. every 3 days, five mice per group
Source text: Balb nu/nu or C57BL/6J mice were purchased from Clea Japan Inc. (Tokyo, Japan). Mice were used for experiments at 2–3 months of age. For SW480 transplanted xenograft model, SW480 cells were subcutaneously implanted into male Balb nu/nu mice. […] For generation of the Lewis lung cancer implantation mouse model, LLC cells were subcutaneously implanted into male C57BL/6J mice. […] Anti-PD-1 antibodies (Biolegend, San Diego, CA, USA) were used for combination therapy. To determine the tumor volume, the longitudinal diameter (length) and transverse diameter (width) were determined. Tumor volume based on measurements by Vernier calipers was calculated as tumor volume = ½ (length × width^2). For in vivo S100A8 stimulation, C57BL/6J mice were intravenously injected with mammalian-derived S100A8. Four hours after the i.v. injection, mice were sacrificed, and minced mouse lungs were digested with collagenase/dispase/DNase solution. Collected cells were incubated with anti-CD11b-PE (BD Bioscience), anti-Ly6G-FITC (BD Bioscience), and anti-Ly6C-APC (BD Bioscience) antibodies, and analyzed by a flow cytometry (Cytomics FC500; Beckman Coulter, Brea, CA, USA). […] After 24 h, PKH26 (Sigma-Aldrich)-fluorescent-labeled LLC cells were intravenously injected into TCM-stimulated C57BL6J mice. The mice were sacrificed after 16 h, and minced mouse lungs were digested with collagenase/dispase/DNase solution. The recruitment of MDSCs or PKH-26 labeled tumor cells in the lungs was determined by flow cytometry (CytoFlex; Beckman Coulter).
Briefly, LLC cells were implanted s.c. into C57BL/6 J mice. […] Tumor volumes for individual mice were determined at the indicated time points. Each group included five mice. […] Tumor size was determined at the indicated time points. […] Each group included 5–6 mice. The mice were administered tumor conditioned medium once daily for five consecutive days. […] The PKH-26 labeled LLC tumor cells were injected intravenously, the mice were sacrificed, and the cell number was analyzed after 16 h. Each group included 5–6 mice.

FQEFAILVIK [Divalent peptide3A5]
S100A8-mediated VEGF induction (mRNA) (SW480 cells): efficiently inhibited | S100A8-mediated IL-8 induction (mRNA) (SW480 cells; *P < 0.05 vs S100A8): efficiently inhibited | inhibition of S100A8-induced phosphorylation of p38 [1]: 1.3 fold | inhibition of S100A8-induced phosphorylation of p65 (NF-κB) [1]: 1.7 fold | tumor growth, divalent peptide3A5 monotherapy [2]: inhibits tumor growth | tumor growth, divalent peptide3A5 monotherapy ([2]; listed as divalent peptide3A5): suppressed tumor progression in a dose-dependent manner; also recorded: dose-dependently inhibited tumor growth; also recorded: inhibited tumor growth in vivo | tumor growth, combination with 5-FU [2]: synergistically inhibits tumor growth with 5-FU combination | tumor growth, combination with 5-FU ([2]; listed as divalent peptide3A5): synergistically suppressed tumor growth | tumor growth, combination with bevacizumab ([2]; divalent peptide3A5 5 mg/kg i.p. + bevacizumab 4 mg/kg i.p.): synergistically suppressed tumor growth; also recorded: synergistically inhibited tumor growth with bevacizumab | caspase-3 activation in SW480 tumors [3]: caused caspase-3 activation | tumor cell proliferation in SW480 tumors [3]: suppressed tumor cell proliferation | pericyte coverage (α-SMA/CD31) ([4]; 5 mg/kg or 10 mg/kg): significantly increased the pericyte coverage | tumor vasculature ([4]; anti-CD31 staining): significantly diminished | intratumoral infiltrating CD8+ cells, alone (CD8+ cells; LLC tumor-bearing mice): increased | intratumoral infiltrating CD8+ cells, combination with anti-PD-1 (CD8+ cells; combination with anti-PD-1 antibody): increased | pulmonary recruitment of PKH26-labeled LLC cells / lung metastasis (PKH26-labeled LLC cells): suppresses the pulmonary recruitment of PKH26-labeled LLC cells | induction of cytokines/chemokines [5]: suppress the induction of cytokines/chemokines in both tumor cells and macrophages | LLC tumor growth, monotherapy (LLC tumor): suppresses tumor progression | LLC tumor growth, monotherapy (LLC tumor; listed as divalent peptide3A5): inhibited in vivo tumor growth; also recorded: suppressed tumor growth in tumor-bearing mice | LLC tumor, combination with anti-PD-1 antibody (LLC tumor; with anti-PD-1 every 3 days, 5–6 mice per group): improved the efficacy of anti-programmed death (PD)1 antibody; also recorded: increased the efficacy of anti-PD-1 therapy
